Laboratory results from patent publication US11066651B2, “Methods and compositions relating to viral latency” (University of Utah Research Foundation, priority 2009, dated 2021).
“Also recorded” adds a separate entry of the source.

Legend:
DHIV-infected NP cells = assay: HIV-1 reactivation by αCD3/CD28 in latently infected NP cells in the presence of signaling inhibitors (intracellular p24 Gag, flow cytometry); assay type: cell-based, human; details: αCD3/CD28 restimulation 3 days; for inhibition of reactivation: inhibitor preincubated 2 hr
Procedure: (§1) To assess intracellular p24-gag expression, 5×10^5 cells were fixed and permeabilized with Citofix/Cytoperm during 30 min at 4° C. (BD Biosciences, San Diego, Calif.). Cells were washed with Perm/Wash Buffer (BD Biosciences) and stained with 1:40 dilution of anti-p24 antibody (AG3.0) in 100 μl of Perm/Wash Buffer during 30 min at 4° C. Cells were washed with Perm/Wash Buffer and incubated with 1:100 Alexa Fluor 488 goat anti-mouse IgG (H+L) in 100 μl of Perm/Wash Buffer during 30 min at 4° C. Cells were washed with Perm/Wash Buffer and samples were analyzed by flow cytometry. Forward versus side scatter plots were used to define the live population. In all the experiments, HIV p24-gag staining regions were set with uninfected cells treated in parallel.
2.5×10^5 cells were reactivated with beads coated with anti-CD3 and anti-CD28 during 72 hours in the presence of IL-2 (1 bead per cell).
For inhibition studies, cells were preincubated with the indicated inhibitor for 2 hr before stimulation (See Supplementary Methods on line for the concentration of each inhibitor or activator).
To begin to dissect potential signaling pathways leading to virus reactivation, a panel of known signaling inhibitors was tested. […] As a control, and to confirm expectations that the observed latent infections represent post-integration events, the integrase inhibitor, 118-D-24, was tested (FIG. 3A).
(§2) The concentration of each inhibitor or activator was as follows: 5 μM H-89, 50 μM PD98059, 250 nM Wortmannin, 15 nM bisindolylmaleimide II (BIM), 5 μM Rottlerin, 10 μM PP2, 50 μg/ml I kappa B Kinase Inhibitor Peptide, Cell-Permeable (IKK inh.) and 50 μM Forskolin (Calbiochem, San Diego, Calif.); 50 μM SB202190 and 125 ng/ml Leflunomide (Alexis Biochemicals, San Diego, Calif.); 10 nM Gö6976 and 1 μM Prostratin (LC Laboratories, Woburn, Mass.); 25 ng/ml TNF-α (Prepotech Inc.); 10 ng/ml phorbol 12-myristate 13-acetate, 1 μM Ionomycin, 5 μg/ml L-PHA and 1 mM Valproic Acid (Sigma, Saint Louis, Mo.); 500 ng/ml Cyclosporin A (Fluka/Sigma); 25 μM SP600125 (A.G. Scientific Int., San Diego, Calif.); and 20 μM Integrase Inhibitor (118-D-24).

[1] = tested on: Jurkat latently infected cells; details: Jurkat cell line; cited from earlier work
[2] = tested on: Latently infected cells (DHIV-infected NP cells); assay: HIV-1 reactivation in latently infected NP cells by signaling agonists (intracellular p24 Gag, flow cytometry); assay type: cell-based, human; details: agonist 3 days at the concentration of b193; for ability of agonist to reactivate viral gene expression (in words): p24 Gag+ cells
Procedure: as §1
To complement the inhibitor studies, additional experimentation was conducted using agonists for the above signaling pathways. Latently infected cells were either left untreated or incubated with agonist. As a positive control, cells were treated with αCD3/CD28. The ability of the agonist to promote viral reactivation was then evaluated by detection of intracellular p24^Gag as shown above (FIG. 4). Phytohemagglutinin (PHA), a lectin that binds non-specifically to carbohydrate moieties on surface glycoproteins and acts as a potent polyclonal mitogen for T cells, was the first to be tested.
as §2

[3] = tested on: Latently infected cells (DHIV-infected NP cells); assay: PHA-mediated HIV-1 reactivation in the presence of inhibitors (intracellular p24 Gag); assay type: cell-based, human
Procedure: To assess intracellular p24-gag expression, 5×10^5 cells were fixed and permeabilized with Citofix/Cytoperm during 30 min at 4° C. […] Cells were washed with Perm/Wash Buffer (BD Biosciences) and stained with 1:40 dilution of anti-p24 antibody (AG3.0) in 100 μl of Perm/Wash Buffer during 30 min at 4° C. Cells were washed with Perm/Wash Buffer and incubated with 1:100 Alexa Fluor 488 goat anti-mouse IgG (H+L) in 100 μl of Perm/Wash Buffer during 30 min at 4° C. Cells were washed with Perm/Wash Buffer and samples were analyzed by flow cytometry. Forward versus side scatter plots were used to define the live population. In all the experiments, HIV p24-gag staining regions were set with uninfected cells treated in parallel.
For inhibition studies, cells were preincubated with the indicated inhibitor for 2 hr before stimulation (See Supplementary Methods on line for the concentration of each inhibitor or activator). […]

p38α MAPK = details: cited from earlier work
latently infected cells = assay: IL-7+IL-2 induced viral reactivation in the presence of inhibitors; assay type: cell-based, human; details: IL-7+IL-2 stimulation
Source text: Understanding the intracellular mediators of IL-7/IL-2 stimulation provides additional targets toward latent virus purging. Some of these mediators can be enzymes, such as kinases and phosphatases, which may be ameneable to agonistic or antagonistic drugs. It is also important to know the IL-7/IL-2 signaling because, as noted herein, this pathway is the basis for homeostatic proliferation of memory cells, where an important proportion of proliferating cells are not inducing viral reactivation.
IL-7 stimulation induces activation of p38MAPK (a noncanonical IL-7 dependent pathway). […] Therefore, p38α is also a mediator for reactivation via IL-7.

[4] = tested on: tumor cell lines harboring integrated, latent HIV-1; details: through the activation of NFκB; cited from earlier work
[5] = inhibitor at the concentration of b193

CN1CCCC1CCn1cc(C2=C(c3c[nH]c4ccccc34)C(=O)NC2=O)c2ccccc21 (stereo not shown) [BIM, bisindolylmaleimide II]
effect of inhibitor on viral reactivation (in words) (DHIV-infected NP cells; [5]): None of these three compounds had a negative effect on viral reactivation

Cn1c2ccccc2c2c3c(c4c5ccccc5n(CCC#N)c4c21)CNC3=O [Gö6976]
effect of inhibitor on viral reactivation (in words) (DHIV-infected NP cells; [5]): None of these three compounds had a negative effect on viral reactivation

O=S(=O)(NCCNC/C=C/c1ccc(Br)cc1)c1cccc2cnccc12 [H-89]
effect of inhibitor on viral reactivation (in words) (DHIV-infected NP cells; [5]): did not have any effect on viral reactivation

Cc1oncc1C(=O)Nc1ccc(C(F)(F)F)cc1 [Leflunomide]
effect of inhibitor on viral reactivation (in words) (DHIV-infected NP cells; [5]): failed to block viral reactivation | effect of inhibitor on viral reactivation (in words) (DHIV-infected NP cells; inhibitor at the concentration of b193, listed as lefluonomide): does not block reactivation in memory cells

COc1cccc(-c2cc(=O)c3ccccc3o2)c1N [PD98059]
effect of inhibitor on viral reactivation (in words) (DHIV-infected NP cells; [5]): Neither SP600125 nor PD98059 inhibited viral reactivation

CCCCCCCCCCCCCC(=O)O[C@@H]1[C@@H](C)[C@@]2(O)[C@@H](C=C(CO)C[C@]3(O)C(=O)C(C)=C[C@@H]23)[C@@H]2C(C)(C)[C@]12OC(C)=O [PMA, phorbol 12-myristate 13-acetate]
reactivation of latent viruses (in words) [1]: Reactivation of these latent viruses was accomplished | ability of agonist to reactivate viral gene expression (in words) [2]: Neither compound was able to reactivate viral gene expression; also recorded: failed to induce any degree of reactivation; also recorded: failed to induce any detectable reactivation

CC(C)(C)n1nc(-c2ccc(Cl)cc2)c2c(N)ncnc21 [PP2]
viral reactivation with PHA in the presence of inhibitor (reactivation efficiency) ([3]; PHA stimulation co-incubated with inhibitor, relative to αCD3/CD28): 3% | effect of inhibitor on reactivation by PHA (in words) ([3]; PHA stimulation plus inhibitor): completely blocked reactivation by PHA | inhibition of reactivation (DHIV-infected NP cells): about 96%

CC(=O)c1c(O)c(C)c(O)c(Cc2c(O)c3c(c(C(=O)/C=C/c4ccccc4)c2O)OC(C)(C)C=C3)c1O [Rottlerin]
effect of inhibitor on viral reactivation (in words) (DHIV-infected NP cells; [5]): None of these three compounds had a negative effect on viral reactivation

Oc1ccc(-c2nc(-c3ccncc3)c(-c3ccc(F)cc3)[nH]2)cc1 [SB202190]
inhibition of reactivation (DHIV-infected NP cells): 66%

C[S+]([O-])c1ccc(-c2nc(-c3ccncc3)c(-c3ccc(F)cc3)[nH]2)cc1 (stereo not shown) [SB203580]
inhibition of reactivation (DHIV-infected NP cells): about 66% | effect on IL-7 induced proliferative response (in words) (p38α MAPK): abrogated the proliferative response | effect of inhibitor on reactivation by IL-7+IL-2 (in words) (latently infected cells): can block reactivation

CCCC(CCC)C(=O)O [VA, valproic acid]
ability of agonist to reactivate viral gene expression (in words) [2]: failed to reactivate viral gene expression | ability of agonist to reactivate viral gene expression (in words) ([2]; listed as Valproic acid): incapable of inducing viral reactivation

C[C@H](CCC(=O)O)C[C@H](C)C[C@H](C)C(=O)/C=C(\O)[C@H](C)C[C@H](C)C/C=C/[C@@H](C)[C@@H](O)[C@@H](C)[C@@H](O)C[C@@H]1CC[C@@](C)([C@H]2CC[C@@](C)([C@@H](C)O)O2)O1 [lonomycin, Ionomycin]
ability of agonist to reactivate viral gene expression (in words) [2]: had no effect on viral reactivation; also recorded: produced no detectable reactivation

CC(=O)O[C@@]12C[C@@H](C)[C@@]3(O)[C@@H](C=C(CO)C[C@]4(O)C(=O)C(C)=C[C@@H]34)[C@@H]1C2(C)C [prostratin]
ability of agonist to reactivate viral gene expression (in words) [2]: Neither compound was able to reactivate viral gene expression; also recorded: failed to induce any degree of reactivation

Phytohemagglutinin [PHA]
ability of agonist to reactivate viral gene expression (in words) [2]: induced reactivation almost as efficiently as αCD3/CD28 treatment | reactivation efficiency ([2]; relative to αCD3/CD28, formula): 79%

TNF-α
induction of viral gene expression (in words) [4]: can induce viral gene expression | reactivation of latent viruses (in words) [1]: Reactivation of these latent viruses was accomplished | ability of agonist to reactivate viral gene expression (in words) [2]: failed to induce any degree of viral gene expression; also recorded: failed to induce any degree of reactivation; also recorded: failed to induce any detectable reactivation
